# Legend:
# Format in all cases: cell-based
# [1] = tested on: normal cells (HaCat, NCTC and human primary fibroblasts); experiment: Cell viability (MTT) of normal cells; settings: increasing concentrations, 24 hours, FIG. 1B
# SeAx cells = experiment: Propidium iodide (PI) uptake, flow cytometry, SeAx cells; settings: 4 μM
# Description: (A) SeAx or HaCat cells cultured in the absence of 10% FBS were left untreated or treated with 4 μM or 10 μM, respectively, of the Antp-AAC-11-LZ (363-399) peptide for the indicated durations. Cells were then analyzed by flow cytometry for PI staining. The results represent the mean number of PI-positive cells±S.D. from at least three independent experiments. (B) A549 and HaCat cells were plated at a densities of 4.5×10^3 in 96 well plates (100 μL total volume per well) and allowed to attach overnight in a 37° C. incubator (5% CO2). […] Lactate dehydrogenase (LDH) activity released in the culture medium was then assessed and data expressed as a percentage of the maximal level (Max) of LDH activity determined after total cell lysis±S.D. from at least three independent experiments.
# (A) SeAx cultured in the absence of 10% FBS were left untreated or treated with 4 μM of the indicated Antp-AAC-11-LZ peptides for various times. Cells were then analyzed by flow cytometry for PI staining. […] Lactate dehydrogenase (LDH) activity released in the culture medium was then assessed and data expressed as a percentage of the maximal level (Max) of LDH activity determined after total cell lysis±S.D.
# Cell death was evaluated upon staining with propidium iodide and flow cytometry analysis. […]
# HaCat cells = experiment: Propidium iodide (PI) uptake, flow cytometry, HaCat cells; settings: 10 μM, absence of 10% FBS, FIG. 4A
# Description: FIG. 4: Antp-AAC-11-LZ (363-399) peptide induced necrotic cell death under low serum conditions. (A) SeAx or HaCat cells cultured in the absence of 10% FBS were left untreated or treated with 4 μM or 10 μM, respectively, of the Antp-AAC-11-LZ (363-399) peptide for the indicated durations. Cells were then analyzed by flow cytometry for PI staining. The results represent the mean number of PI-positive cells±S.D. from at least three independent experiments. (B) A549 and HaCat cells were plated at a densities of 4.5×10^3 in 96 well plates (100 μL total volume per well) and allowed to attach overnight in a 37° C. incubator (5% CO2). Media was removed from cells and replaced with media containing 10 μM Antp-AAC-11-LZ (363-399) peptide (100 μL total volume per well) peptide and the plates were incubated for the indicated durations. Lactate dehydrogenase (LDH) activity released in the culture medium was then assessed and data expressed as a percentage of the maximal level (Max) of LDH activity determined after total cell lysis±S.D. from at least three independent experiments.
# Cell death was evaluated upon staining with propidium iodide and flow cytometry analysis.
# We therefore evaluated necrotic cell death of SeAx cells treated with the Antp-AAC-11-LZ (363-399) peptide by PI uptake assay following different time exposures. […]
substance,measurement,setting,value
Ac-RQIKIWFKKQNRRMKWKKAKLNAEKLKDFKIRLQYFARGLQVYIRQLRLALQGKT-NH2 [Antp-AAC-11-LZ (363-399)],toxicity in normal cells,[1],much reduced toxicity
same,PI positive cells,"SeAx cells; 5 minutes, absence of 10% FBS",90%
same,"PI positive cells, course after 5 minutes",SeAx cells; up to 60 minutes,remained unchanged
same,loss of cell membrane integrity (PI uptake) in nonmalignant cells,HaCat cells,much decreased loss of cell membrane integrity

# From patent US10358469B2, “Methods and pharmaceutical compositions for the treatment of cancer” (INSERM (INSTITUT NATIONAL DE LA SANTÉ ET DE LA RECHERCHE …, priority 2014, dated 2019)
